In general, solubility refers to how much of the substance goes into solution per volume. A lower solubility goes with a poorly soluble substance.

≈ marks a conversion by molar mass, not a printed value. Like-named read-outs stand apart in the source and are kept apart here.

Series [1] can be described thus: physchem. Conditions: 20 °C.
In series [2] the test system is cyanide toxicity. The settings on record: in vivo; cited from earlier work.
In series [3] the test system is cyanide toxicity. The settings on record: mouse, in vivo; cited from earlier work.
The conditions of series [4]: rabbit, in vivo.

For the molecule `O=C(O)C1(O)CSC(O)(C(=O)O)CS1` (stereo not shown) [Compound 2, 2,5-dihydroxy-1,4-dithiane-2,5-dicarboxylic acid], the solubility in series [1] was found to be 200 mM (≈ 48.1 mg/mL).

With `O.O.O.O.O=C(O)C1(O)CSC(O)(C(=O)O)CS1.[Na].[Na]` (stereo not shown) [Compound 3a, disodium 2,5-dihydroxy-1,4-dithiane-2,5-dicarboxylic acid tetrahydrate], the rescue entry in series [2] and in series [3] was “highly effective” throughout.

Molecule `O=C([O-])C1(O)CSC(O)(C(=O)[O-])CS1.[Li+].[Li+]` (stereo not shown) [Compound 3b, Dilithium 2,5-Dihydroxy-1,4-dithiane-2,5-dicarboxylate] showed a solubility in series [1] of 1050 mM.

In series [1], `O=C([O-])C1(O)CSC(O)(C(=O)[O-])CS1.[K+].[K+]` (stereo not shown) [Compound 3c, Dipotassium 2,5-Dihydroxy-1,4-dithiane-2,5-dicarboxylate] gave a solubility of 570 mM. Compared with the last molecule, the solubility is about 1.8-fold lower.

Take `NCCCC[C@H](N)C(=O)O.NCCCC[C@H](N)C(=O)O.O=C(O)C1(O)CSC(O)(C(=O)O)CS1` (stereo not shown) [lysine salt]: in series [4], the “absorption of the antidote” value is on record as “poor absorption” and the tolerability of injection result is “poorly tolerated”.

Source of the values: US9757354B2 (priority 2015, dated 2017).
